In brackets after ≈: the same amount, converted by molar mass.
Key:
[1] = test system: Leishmania major; experiment: Antileishmanial activity against Leishmania major promastigotes assessed as inhibition of parasite growth incubated for 48 hrs by alamar blue reagent based ELISA; format: functional, organism-based
[2] = test system: Plasmodium berghei; experiment: Antimalarial activity against Plasmodium berghei ANKA infected in mouse assessed as parasitemia at 48.4 microM/Kg,po measured after 96 hrs by giemsa staining analysis relative to control; format: functional; settings: at 48.4 µmol/kg
[3] = test system: Leishmania major; experiment: Antileishmanial activity against Leishmania major amastigotes assessed as inhibition of parasite growth incubated for 72 hrs by resazurin reagent based ELISA; format: functional, organism-based
[4] = test system: Plasmodium berghei; experiment: Antimalarial activity against Plasmodium berghei ANKA infected in mouse assessed as reduction in parasite growth at 48.4 microM/Kg,po measured after 96 hrs by giemsa staining analysis; format: functional; parameters: scale not given: the % may be the effect or the level left; settings: at 48.4 µmol/kg
[5] = test system: Plasmodium berghei; experiment: Antimalarial activity against Plasmodium berghei ANKA infected in mouse assessed as mean survival time at 48.4 microM/Kg,po measured after 96 hrs; format: functional
[6] = test system: Mycobacterium tuberculosis; experiment: Antitubercular activity against Mycobacterium tuberculosis H37Ra assessed as inhibition of bacterial growth by microplate alamar blue assay; format: functional
[7] = Acute toxicity in mouse assessed as signs of toxicity at 25 to 150 mg/kg,po administrated for 3 days; format: organism-based; settings: in vivo, 72 h, dose 25-150 mg/kg, time 3 day
[8] = test system: Leishmania major; experiment: Antileishmanial activity against Leishmania major promastigotes assessed as parasite survival incubated for 48 hrs in presence of 20 uM of folinic acid by alamar blue reagent based ELISA relative to control; format: functional
[9] = test system: Leishmania major; experiment: Antileishmanial activity against Leishmania major promastigotes assessed as parasite survival incubated for 48 hrs by alamar blue reagent based ELISA relative to control; format: functional
[10] = Selectivity index, ratio of CC50 for cytotoxicity against African green monkey Vero cells to IC50 for antileishmanial activity against Leishmania major; format: toxicity, cell-based; settings: read-out: Ratio CC50/IC50
[11] = Selectivity index, ratio of CC50 for cytotoxicity against African green monkey Vero cells to MIC for antitubercular activity against Mycobacterium tuberculosis H37Ra; format: toxicity, cell-based; settings: read-out: Selectivity Index
[12] = test system: Leishmania major; experiment: Antileishmanial activity against Leishmania major promastigotes assessed as parasite survival incubated for 48 hrs in presence of 20 uM of folic acid by alamar blue reagent based ELISA relative to control; format: functional
[13] = test system: Leishmania major; experiment: Antileishmanial activity against Leishmania major promastigotes assessed as parasite survival incubated for 48 hrs in presence of 100 uM of folinic acid by alamar blue reagent based ELISA relative to control; format: functional
[14] = test system: Plasmodium falciparum; experiment: Antimalarial activity against chloroquine-resistant Plasmodium falciparum RKL9 assessed as inhibition of parasite growth incubated for 24 hrs by giemsa staining analysis; format: functional, organism-based; settings: RKL9, 24 h
[15] = test system: Leishmania major; experiment: Antileishmanial activity against Leishmania major promastigotes assessed as parasite survival incubated for 48 hrs in presence of 100 uM of folic acid by alamar blue reagent based ELISA relative to control; format: functional
[16] = Cytotoxicity against African green monkey Vero cells incubated for 72 hrs by crystal violet staining based assay; format: toxicity, cell-based; settings: chlorocebus sabaeus
[17] = Selectivity index, ratio of CC50 for cytotoxicity against African green monkey Vero cells to IC50 for antimalarial activity against chloroquine-resistant Plasmodium falciparum RKL9; format: toxicity, cell-based; settings: read-out: Ratio CC50/IC50
[18] = Acute toxicity in mouse assessed as change in body weight at 25 to 150 mg/kg,po administrated for 3 days; format: organism-based; settings: in vivo, 72 h, dose 25-150 mg/kg, time 3 day
[19] = test system: Mycobacterium tuberculosis; experiment: Antitubercular activity against XDR Mycobacterium tuberculosis RCMB 2674 assessed as inhibition of bacterial growth by microplate alamar blue assay; format: functional
[20] = test system: Leishmania major; experiment: Antileishmanial activity against Leishmania major promastigotes assessed as parasite survival at 100 uM incubated for 48 hrs by alamar blue reagent based ELISA relative to control
[21] = test system: Leishmania major; experiment: Antileishmanial activity against Leishmania major promastigotes assessed as parasite survival at 100 uM incubated for 48 hrs in presence of 100 uM of folic acid by alamar blue reagent based ELISA relative to control

| SMILES | IC50 [1] | Activity [2] | IC50 [3] | Activity [4] | Survival [5] | MIC [6] | IC50 [14] | other results |
| --- | --- | --- | --- | --- | --- | --- | --- | --- |
| N#Cc1c(-c2ccccc2Br)c2c([nH]c1=O)-c1ccccc1CC2 | 2110 nM | 36% | 3.83 µM | 60% | 7.33 days | 10.3 µM (≈ 3.9 µg/mL) |  |  |
| CC(=O)N1CCC(C(=O)NCc2ccc3c(c2)-c2[nH]c(=O)c(C#N)c(-c4cc(Cl)ccc4Cl)c2CC3)CC1 | 409 nM | 3% | 0.502 µM | 96.67% |  | 28.4 µM (≈ 15.6 µg/mL) | 39 nM | Activity [7]: Non-Toxic; Survival [8]: 82%; Survival [9]: 24%; selectivity ratio [10]: 1110; selectivity ratio [11]: 16; Survival [12]: 78%; Survival [13]: 94%; Survival [15]: 88%; CC50 at 72 h [16]: 455 µM; selectivity ratio [17]: 11800; Activity [18]: Non-Toxic |
| COc1cc(-c2c3c([nH]c(=O)c2C#N)-c2ccccc2CC3)cc(OC)c1OC | 2520 nM | 8% | 3.68 µM | 91.11% | 12.4 days | 20.1 µM (≈ 7.81 µg/mL) | 96 nM |  |
| N#Cc1c(-c2cccs2)c2c([nH]c1=O)-c1ccccc1CC2 | 2640 nM | 2% | 4.86 µM | 97.78% |  | 12.8 µM (≈ 3.9 µg/mL) | 21 nM | Activity [7]: Non-Toxic; Activity [18]: Non-Toxic |
| COc1ccc(-c2c3c([nH]c(=O)c2C#N)-c2ccccc2CC3)cc1OC | 2240 nM | 38% | 4.68 µM | 57.78% | 8.66 days | 10.9 µM (≈ 3.9 µg/mL) |  |  |
| COc1ccc(OC)c(-c2c3c([nH]c(=O)c2C#N)-c2ccccc2CC3)c1 | 2340 nM | 5% | 2.98 µM | 94.44% |  | 5.44 µM (≈ 1.95 µg/mL) | 89 nM | MIC [19]: 175 µM (≈ 62.6 µg/mL) |
| N#Cc1c(-c2ccc(Cl)cc2Cl)c2c([nH]c1=O)-c1ccccc1CC2 | 5300 nM | 32% | 6 µM | 64.44% | 4.5 days | 5.31 µM (≈ 1.95 µg/mL) |  | MIC [19]: > 342 µM |
| CC(=O)N1CCC(C(=O)NCc2ccc3c(c2)-c2[nH]c(=O)c(C#N)c(-c4cc(C(F)(F)F)ccc4Cl)c2CC3)CC1 | 1240 nM | 56% | 3.26 µM | 37.78% | 5.66 days | 53.6 µM (≈ 31.2 µg/mL) |  |  |
| COc1ccc(-c2c3c([nH]c(=O)c2C#N)-c2ccccc2CC3)cc1O | 1400 nM | 33% | 3.7 µM | 63.33% | 7.33 days | 5.66 µM (≈ 1.95 µg/mL) |  | MIC [19]: 182 µM (≈ 62.6 µg/mL) |
| Cc1cccc(-c2c3c([nH]c(=O)c2C#N)-c2ccccc2CC3)c1 | 3460 nM | 18% | 5.58 µM | 80% | 9.33 days | 100 µM (≈ 31.2 µg/mL) |  |  |
| COc1cccc(-c2c3c([nH]c(=O)c2C#N)-c2ccccc2CC3)c1 | 4150 nM | 11% | 4.88 µM | 87.78% | 10.66 days | 23.8 µM (≈ 7.81 µg/mL) |  |  |
| COc1ccccc1-c1c2c([nH]c(=O)c1C#N)-c1ccccc1CC2 | 5490 nM | 42% | 6.29 µM | 53.33% | 6.5 days | 2.98 µM (≈ 0.979 µg/mL) |  | selectivity ratio [10]: 60.6; selectivity ratio [11]: 127; CC50 at 72 h [16]: 381 µM; MIC [19]: 23.8 µM (≈ 7.82 µg/mL) |
| COc1ccc(-c2c3c([nH]c(=O)c2C#N)-c2ccccc2CC3)cc1 | 3900 nM | 26% | 4.7 µM | 71.11% | 9.66 days | 11.9 µM (≈ 3.9 µg/mL) |  |  |
| COc1cc(-c2c3c([nH]c(=O)c2C#N)-c2ccccc2CC3)ccc1O | 577 nM | 2% | 0.695 µM | 97.78% |  | 90.7 µM (≈ 31.2 µg/mL) | 19 nM | Activity [7]: Non-Toxic; Survival [8]: 78%; Survival [9]: 22%; selectivity ratio [10]: 629; selectivity ratio [11]: 4; Survival [12]: 76%; Survival [13]: 89%; Survival [15]: 85%; CC50 at 72 h [16]: 363 µM; selectivity ratio [17]: 18300; Activity [18]: Non-Toxic |
| N#Cc1c(-c2ccccc2[N+](=O)[O-])c2c([nH]c1=O)-c1ccccc1CC2 | 4220 nM | 17% | 5.63 µM | 81.11% | 8.83 days |  |  |  |
| N#Cc1c(O)nc2c(c1-c1cccc([N+](=O)[O-])c1)CCc1ccccc1-2 | 2890 nM | 28% | 3.97 µM | 68.89% | 7.66 days | 5.67 µM (≈ 1.95 µg/mL) |  | MIC [19]: 91.1 µM (≈ 31.3 µg/mL) |
| CCN(CC)CCCC(C)Nc1ccnc2cc(Cl)ccc12.O=P(O)(O)O.O=P(O)(O)O (configuration not stated) [CHLOROQUINE PHOSPHATE] |  | 0% |  | 100% | 13.12 days |  |  |  |
| NNC(=O)c1ccncc1 [ISONIAZID] |  |  |  |  |  | 0.875 µM (≈ 0.12 µg/mL) |  |  |
| CCc1nc(N)nc(N)c1-c1ccc(Cl)cc1 [PYRIMETHAMINE] |  | 0% |  | 100% |  |  | 13 nM |  |
| COc1cc(Cc2cnc(N)nc2N)cc(OC)c1OC [TRIMETHOPRIM] |  |  |  |  |  |  |  | survival at 100 µM [20]: 71%; survival at 100 µM [21]: 99% |
